Measurements as given in patent US8552064B2, “Suramin and derivatives thereof as topical microbicide and contraceptive” (Eastern Virginia Medical School, priority 2005, dated 2013).
Values after ≈ are worked out from the molar mass of the structure shown.

Assays:
[1] = test system: HIV-1 transmission from H9-SK1 cells to ME-180 cervical epithelial cells; assay: ME-180-based topical microbicide assay (CD4-independent epithelial cell transmission)
Protocol: ME-180 cervical epithelial cells were plated in the interior wells of a 96-well flat bottom microtiter plate at a density of 5×10^3 cells per well and incubated overnight. Chronically infected H9 cells (H9-SK1) were treated with 200 μg/ml mitomycin C (Sigma) in complete medium for one hour, washed extensively and resuspended at 4×10^5 per ml. […] Antiviral compounds and chronically infected cells (2×10^4 cells) were added to each well containing ME-180 cells and incubated for 6 hours. Following co-cultivation, the monolayer was washed extensively and fresh medium was added. Medium was removed and fresh medium was added at 24 and 48 hours post-infection to remove dead lymphocytes. On day 6 post-infection, supernatant samples were removed and analyzed for virus content by p24 ELISA (Phillips D M et al., 1995, J Virol Methods, March, 52 (1-2): 1-13).

[2] = test system: human sperm, zona-free hamster eggs; assay: Hamster-egg penetration test (HEPT); type: cell-based
Protocol: The hamster-egg penetration test (HEPT) was used to predict the fertilizing ability of human sperm by evaluating the sperm's ooctye-penetration capability as described in Yanagimachi R. et al., Biol. Reprod., 15: 471-6 (1976). The zona pellucida of hamster eggs was dissolved by treatment with a protease, and human sperm were subsequently added to the zona free eggs. Sperm binding and penetration were assessed under a standard microscope (60× magnification) after placing the sperm-egg complexes onto polylysine-coated glass slides and covered them with 22×22 mm glass coverslips. The ability of the sperm to bind and enter the egg was scored by counting the sperm nuclei lying within the egg cytoplasm. The effect of the test compound was determined by comparing the number of sperm bound to the surface of the eggs and the percentage of penetrated eggs.

Neisseria gonorrhoeae = assay: Gonococcal growth inhibition (multiplication assay); type: cell-based
Protocol: Gonococcal growth inhibition assays were performed by the method of Anderson R. A., et al., J. Androl., 21: 862-875; 2000. Briefly, Neisseria gonorrhea from local uncomplicated cases of gonorrhea were isolated (verified by Gram stain, oxidase reactivity and sugar fermentation). The titer of log-phase cultures were adjusted by dilution in GC broth to 0.5 McFarland standard (approximately 10^8 colony forming units per ml). This was diluted 1:10 with broth that contained no additions (control), and each of serial 1:10 dilutions of test agent, ranging from 1 mg/ml to 1.0 μg/ml. The cultures were incubated at 37° C. for four hours. Four serial 1:10 dilutions were made in GC broth, and a portion of each dilution was inoculated onto GC agar plates. The plates were incubated overnight, and resultant gonococcal colonies were counted under bright-field microscopy. Data for each concentration of suramin were expressed as the number of colony-forming units (CFU) per ml of the original log-phase bacterial suspension.

**Q.** `Cc1ccc(C(=O)Nc2ccc(S(=O)(=O)O)c3cc(S(=O)(=O)O)cc(S(=O)(=O)O)c23)cc1NC(=O)c1cccc(NC(=O)Nc2cccc(C(=O)Nc3cc(C(=O)Nc4ccc(S(=O)(=O)O)c5cc(S(=O)(=O)O)cc(S(=O)(=O)O)c45)ccc3C)c2)c1` [Suramin, 8,8′-(carbonylbis(imino-3,1-phenylenecarbonylimino(4-methyl-3,1-phenylene)carbonylimino))bis-1,3,5-naphthalene trisulfonic acid] was tested. Which “Potency, HIV-1 ME-180” value [1] did it give?
**A.** High

**Q.** And the IC50 ([1]; Human immunodeficiency virus 1, ME-180, CD4-independent epithelial cell transmission)?
**A.** 24.5 µg/mL (≈ 18.9 µM)

**Q.** And the “effect of mucin on activity in ME-180 assay” value ([1]; addition of mucin)?
**A.** did not significantly reduce suramin's activity

**Q.** And the “Potency, Oolemma binding/Penetration (HEPT)” value [2]?
**A.** High

**Q.** What about the inhibition of penetration [2] of the same compound?
**A.** 100%

**Q.** And the “inhibition of sperm binding to hamster zona-free oocytes” value [2]?
**A.** 75%

**Q.** What about the “sperm penetration/fertilization of zona-free eggs” value ([2]; n=28 oocytes) of the same compound?
**A.** completely abolished sperm penetration/fertilization

**Q.** What about the “Potency, Gonococcus (GC) Multiplication” value (Neisseria gonorrhoeae) of the same compound?
**A.** Moderate

**Q.** And the “inhibition of GC growth (multiplication assay)” value (Neisseria gonorrhoeae; 1 mg/mL)?
**A.** completely inhibited GC growth

**Q.** And the “dose-response of GC growth” value (Neisseria gonorrhoeae; 1-1000 μg/mL)?
**A.** no clear dose-response

**Q.** What about the inhibition at 1000 µg/mL (Neisseria gonorrhoeae; Neisseria gonorrhoeae, 1 mg/mL, read-out: inhibition of GC multiplication) of the same compound?
**A.** 100%
